Laboratory results published in patent US20240158348A1, “HERBICIDAL CYCLIC AMIDES N-SUBSTITUTED WITH A HALOALKYLSULFONYLANILIDE GROUP” (FMC Corporation, priority 2021, published 2024).

Key:
Format in all cases: in vivo
[1] = system: ryegrass, Italian (Italian ryegrass, Lolium multiflorum); experiment: Test C preemergence, Italian ryegrass; details: 0 is no effect, 100 is complete control
From the text: (§1) Seeds of plant species selected from blackgrass (Alopecurus myosuroides), corn (Zea mays), foxtail, giant (giant foxtail, Setaria faberi), goosegrass (Eleusine indica), kochia (Bassia scoparia), oat, wild (wild oat, Avena fatua), pigweed, palmer (palmer amaranth, Amaranthus palmeri), ragweed (common ragweed, Ambrosia artemisiifolia), ryegrass, Italian (Italian ryegrass, Lolium multiflorum), soybean (Glycine max) and wheat (Triticum aestivum) were planted into a blend of loam soil and sand and treated preemergence with a directed soil spray using test chemicals formulated in a non-phytotoxic solvent mixture which included a surfactant.
(§2) At the same time, plants selected from these crop and weed species and also galium (catchweed bedstraw, Galium aparine) and horseweed (Erigeron canadensis) were planted in pots containing the same blend of loam soil and sand and treated with postemergence applications of test chemicals formulated in the same manner. Plants ranged in height from 2 to 10 cm and were in the one- to two-leaf stage for the postemergence treatment. Treated plants and untreated controls were maintained in a greenhouse for 10 or 12 days, after which time all treated plants were compared to untreated controls and visually evaluated for injury. Plant response ratings, summarized in Table A, are based on a 0 to 100 scale where 0 is no effect and 100 is complete control. A dash (-) response means no test result.

[2] = system: wheat (Triticum aestivum); experiment: Test C postemergence, wheat; details: visual injury, 0 to 100 scale (0 no effect, 100 complete control)
From the text: as §1, §2

[3] = system: wheat (Triticum aestivum); experiment: Test C preemergence, wheat; details: 0 is no effect, 100 is complete control
From the text: as §1, §2

[4] = system: horseweed (Erigeron canadensis); experiment: Test C postemergence, horseweed; details: visual injury, 0 to 100 scale (0 no effect, 100 complete control)
From the text: as §1, §2

soybean (Glycine max) [5] = experiment: Test C postemergence, soybean; details: visual injury, 0 to 100 scale (0 no effect, 100 complete control)
From the text: as §1, §2

[6] = system: foxtail, giant (giant foxtail, Setaria faberi); experiment: Test C preemergence, giant foxtail; details: 0 is no effect, 100 is complete control
From the text: as §1, §2

[7] = system: sedge, umbrella (small-flower umbrella sedge, Cyperus difformis); experiment: Test D flooded paddy test, umbrella sedge; parameters: key: 0 = no effect, 100 = complete control; details: 250 g ai/ha, Flood; applied to paddy water at 2-leaf stage; visual rating after 13 days; scale 0 (no effect) to 100 (complete control)
Description: (§3) Plant species in the flooded paddy test selected from barnyardgrass (Echinochloa crusgalli), ducksalad (Heteranthera limosa), rice (Oryza sativa), and sedge, umbrella (small-flower umbrella sedge, Cyperus difformis) were grown to the 2-leaf stage for testing. At time of treatment, test pots were flooded to 3 cm above the soil surface, treated by application of test compounds directly to the paddy water, and then maintained at that water depth for the duration of the test. Treated plants and controls were maintained in a greenhouse for 13 days, after which time all species were compared to controls and visually evaluated. Plant response ratings, summarized in Table B, are based on a scale of 0 to 100 where 0 is no effect and 100 is complete control. A dash (-) response means no test result.

[8] = system: ryegrass, Italian (Italian ryegrass, Lolium multiflorum); experiment: Test C postemergence, Italian ryegrass; details: visual injury, 0 to 100 scale (0 no effect, 100 complete control)
From the text: as §1, §2

[9] = system: foxtail, giant (giant foxtail, Setaria faberi); experiment: Test C postemergence, giant foxtail; details: visual injury, 0 to 100 scale (0 no effect, 100 complete control)
From the text: as §1, §2

corn (Zea mays) [10] = experiment: Test C postemergence, corn; details: visual injury, 0 to 100 scale (0 no effect, 100 complete control)
From the text: as §1, §2

[11] = system: ducksalad (Heteranthera limosa); experiment: Test D flooded paddy test, ducksalad; parameters: key: 0 = no effect, 100 = complete control; details: 250 g ai/ha, Flood; applied to paddy water at 2-leaf stage; visual rating after 13 days; scale 0 (no effect) to 100 (complete control)
Description: as §3

kochia (Bassia scoparia) [12] = experiment: Test C postemergence, kochia; details: visual injury, 0 to 100 scale (0 no effect, 100 complete control)
From the text: as §1, §2

[13] = system: pigweed, palmer (palmer amaranth, Amaranthus palmeri); experiment: Test C preemergence, palmer amaranth; details: 0 is no effect, 100 is complete control
From the text: as §1, §2

[14] = system: barnyardgrass (Echinochloa crusgalli); experiment: Test D flooded paddy test, barnyardgrass; parameters: key: 0 = no effect, 100 = complete control; details: 250 g ai/ha, Flood; applied to paddy water at 2-leaf stage; visual rating after 13 days; scale 0 (no effect) to 100 (complete control)
Description: as §3

corn (Zea mays) [15] = experiment: Test C preemergence, corn; details: 0 is no effect, 100 is complete control
From the text: as §1, §2

[16] = system: oat, wild (wild oat, Avena fatua); experiment: Test C preemergence, wild oat; details: 0 is no effect, 100 is complete control
From the text: as §1, §2

[17] = system: goosegrass (Eleusine indica); experiment: Test C preemergence, goosegrass; details: 0 is no effect, 100 is complete control
From the text: as §1, §2

[18] = system: ragweed (common ragweed, Ambrosia artemisiifolia); experiment: Test C preemergence, ragweed; details: 0 is no effect, 100 is complete control
From the text: as §1, §2

[19] = system: pigweed, palmer (palmer amaranth, Amaranthus palmeri); experiment: Test C postemergence, palmer amaranth; details: visual injury, 0 to 100 scale (0 no effect, 100 complete control)
From the text: as §1, §2

rice (Oryza sativa) = experiment: Test D flooded paddy test, rice; parameters: key: 0 = no effect, 100 = complete control; details: 250 g ai/ha, Flood; applied to paddy water at 2-leaf stage; visual rating after 13 days; scale 0 (no effect) to 100 (complete control)
Description: as §3

soybean (Glycine max) [20] = experiment: Test C preemergence, soybean; details: 0 is no effect, 100 is complete control
From the text: as §1, §2

[21] = system: blackgrass (Alopecurus myosuroides); experiment: Test C postemergence, blackgrass; details: visual injury, 0 to 100 scale (0 no effect, 100 complete control)
From the text: as §1, §2

[22] = system: oat, wild (wild oat, Avena fatua); experiment: Test C postemergence, wild oat; details: visual injury, 0 to 100 scale (0 no effect, 100 complete control)
From the text: as §1, §2

[23] = system: ragweed (common ragweed, Ambrosia artemisiifolia); experiment: Test C postemergence, ragweed; details: visual injury, 0 to 100 scale (0 no effect, 100 complete control)
From the text: as §1, §2

kochia (Bassia scoparia) [24] = experiment: Test C preemergence, kochia; details: 0 is no effect, 100 is complete control
From the text: as §1, §2

[25] = system: goosegrass (Eleusine indica); experiment: Test C postemergence, goosegrass; details: visual injury, 0 to 100 scale (0 no effect, 100 complete control)
From the text: as §1, §2

For `Cc1cc(C)c(N(COC(=O)C(C)(C)C)S(=O)(=O)C(F)(F)F)cc1N1CCC(OCC2CC2)C1=O` (stereo not drawn) [Compound 53], the “Plant response rating (0 to 100 scale), Ryegrass, Italian” value ([1]; 31 g ai/ha Preemergence) was 60, the “Plant response rating (0 to 100 scale), Ryegrass, Italian” value ([1]; 125 g ai/ha Preemergence) was 100 and the “Wheat plant response rating” value ([2]; 31 g ai/ha Postemergence) was 40. The “Wheat plant response rating” value ([2]; 125 g ai/ha Postemergence) was 80, the “Plant response rating (0 to 100 scale), Wheat” value ([3]; 31 g ai/ha Preemergence) was 60 and the “Plant response rating (0 to 100 scale), Wheat” value ([3]; 125 g ai/ha Preemergence) was 90. For the same compound, the “Horseweed plant response rating” value ([4]; 31 g ai/ha Postemergence) was 80, the “Horseweed plant response rating” value ([4]; 125 g ai/ha Postemergence) was 90 and the “Soybean plant response rating” value (soybean (Glycine max) [5]; 31 g ai/ha Postemergence) was 50. For the same compound, the “Soybean plant response rating” value (soybean (Glycine max) [5]; 125 g ai/ha Postemergence) was 60, the “Plant response rating (0 to 100 scale), Foxtail, Giant” value ([6]; 31 g ai/ha Preemergence) was 10 and the “Plant response rating (0 to 100 scale), Foxtail, Giant” value ([6]; 125 g ai/ha Preemergence) was 90. The “Plant response rating, Sedge, Umbrella” value [7] was 98, the “Ryegrass, Italian plant response rating” value ([8]; 31 g ai/ha Postemergence) was 0 and the “Ryegrass, Italian plant response rating” value ([8]; 125 g ai/ha Postemergence) was 70. The “Foxtail, Giant plant response rating” value ([9]; 31 g ai/ha Postemergence) was 30, the “Foxtail, Giant plant response rating” value ([9]; 125 g ai/ha Postemergence) was 90 and the “Corn plant response rating” value (corn (Zea mays) [10]; 31 g ai/ha Postemergence) was 20. For the same compound, the “Corn plant response rating” value (corn (Zea mays) [10]; 125 g ai/ha Postemergence) was 60, the “Plant response rating, Ducksalad” value [11] was 70 and the “Kochia plant response rating” value (kochia (Bassia scoparia) [12]; 31 g ai/ha Postemergence) was 20. For the same compound, the “Kochia plant response rating” value (kochia (Bassia scoparia) [12]; 125 g ai/ha Postemergence) was 50, the “Plant response rating (0 to 100 scale), Pigweed, Palmer” value ([13]; 31 g ai/ha Preemergence) was 30 and the “Plant response rating (0 to 100 scale), Pigweed, Palmer” value ([13]; 125 g ai/ha Preemergence) was 90. The “Plant response rating, Barnyardgrass” value [14] was 40, the “Plant response rating (0 to 100 scale), Corn” value (corn (Zea mays) [15]; 31 g ai/ha Preemergence) was 0 and the “Plant response rating (0 to 100 scale), Corn” value (corn (Zea mays) [15]; 125 g ai/ha Preemergence) was 50. The “Plant response rating (0 to 100 scale), Oat, Wild” value ([16]; 31 g ai/ha Preemergence) was 0, the “Plant response rating (0 to 100 scale), Oat, Wild” value ([16]; 125 g ai/ha Preemergence) was 90 and the “Plant response rating (0 to 100 scale), Goosegrass” value ([17]; 31 g ai/ha Preemergence) was 60. The “Plant response rating (0 to 100 scale), Goosegrass” value ([17]; 125 g ai/ha Preemergence) was 100, the “Plant response rating (0 to 100 scale), Ragweed” value ([18]; 31 g ai/ha Preemergence) was 60 and the “Plant response rating (0 to 100 scale), Ragweed” value ([18]; 125 g ai/ha Preemergence) was 70. The “Pigweed, Palmer plant response rating” value ([19]; 31 g ai/ha Postemergence) was 40, the “Pigweed, Palmer plant response rating” value ([19]; 125 g ai/ha Postemergence) was 70 and the “Plant response rating, Rice” value (rice (Oryza sativa)) was 25. For the same compound, the “Plant response rating (0 to 100 scale), Soybean” value (soybean (Glycine max) [20]; 31 g ai/ha Preemergence) was 20, the “Plant response rating (0 to 100 scale), Soybean” value (soybean (Glycine max) [20]; 125 g ai/ha Preemergence) was 40 and the “Blackgrass plant response rating” value ([21]; 31 g ai/ha Postemergence) was 20. For the same compound, the “Blackgrass plant response rating” value ([21]; 125 g ai/ha Postemergence) was 60, the “Oat, Wild plant response rating” value ([22]; 31 g ai/ha Postemergence) was 10 and the “Oat, Wild plant response rating” value ([22]; 125 g ai/ha Postemergence) was 50. For the same compound, the “Ragweed plant response rating” value ([23]; 31 g ai/ha Postemergence) was 70, the “Ragweed plant response rating” value ([23]; 125 g ai/ha Postemergence) was 90 and the “Plant response rating (0 to 100 scale), Kochia” value (kochia (Bassia scoparia) [24]; 31 g ai/ha Preemergence) was 0. The “Plant response rating (0 to 100 scale), Kochia” value (kochia (Bassia scoparia) [24]; 125 g ai/ha Preemergence) was 50, the “Goosegrass plant response rating” value ([25]; 31 g ai/ha Postemergence) was 60 and the “Goosegrass plant response rating” value ([25]; 125 g ai/ha Postemergence) was 90.
